Data taken from patent publication US6239122A, “Method of treatment of nausea, vomiting, and other disorders using estrogens” (priority 2000, dated 2001).

Legend:
5-HT3 receptor [1] = target: T1, 5-HT3 receptor (Mus musculus, UniProt P23979); test: Whole-cell patch clamp, co-application of estrogen with 5-HT (0.5 μM); open conformation, high affinity site; format: cell-based, mouse neuroblastoma×Chinese hamster brain cell line (NCB-20)
T1 construct: an immortal cell line that expresses 5-HT3 receptors at a high density; endogenous in cells; host or cells: NCB-20 cells (mouse neuroblastoma × Chinese hamster brain hybrid)
Protocol: I recorded membrane currents carried by 5-HT3 receptors under voltage-clamp from single cells using the whole-cell configuration of the patch clamp technique (Hamill, O. P., Marty, A., Neher, E., Sakmann, B. & Sakmann, F. J., 1981, Pfluegers Arch. 391:85-100). Recordings were performed at a holding potential of -60 mV. Ligands were applied to the cells using a gravity-feed rapid perfusion system.
When the agonist is bound to the receptor and the receptor is conducting current, the receptor is in an open conformation. […] Concentration-effect data from 21 cells were fitted with the Hill (logistic) equation.

5-HT3 receptor [2] = target: T1, 5-HT3 receptor; test: Whole-cell patch clamp, estrogen applied before 5-HT (10 μM); closed conformation, low affinity site; format: cell-based, mouse neuroblastoma×Chinese hamster brain cell line (NCB-20)
Protocol: I used NCB-20 cells (mouse neuroblastoma×Chinese hamster brain cell line), an immortal cell line that expresses 5-HT3 receptors at a high density. Cells were grown in Dulbecco's modified Eagles medium containing 10% fetal bovine serum, 100 U/ml penicillin, 100 μg/ml streptomycin and 2 mM glutamine. Cells were incubated in 35 mm plates at 37 degrees C in a humidified 7% carbon dioxide atmosphere. […] I recorded membrane currents carried by 5-HT3 receptors under voltage-clamp from single cells using the whole-cell configuration of the patch clamp technique (Hamill, O. P., Marty, A., Neher, E., Sakmann, B. & Sakmann, F. J., 1981, Pfluegers Arch. 391:85-100). Recordings were performed at a holding potential of -60 mV. Ligands were applied to the cells using a gravity-feed rapid perfusion system.
This is also called the closed conformation of the receptor.

T1 sequence (P23979 24-489): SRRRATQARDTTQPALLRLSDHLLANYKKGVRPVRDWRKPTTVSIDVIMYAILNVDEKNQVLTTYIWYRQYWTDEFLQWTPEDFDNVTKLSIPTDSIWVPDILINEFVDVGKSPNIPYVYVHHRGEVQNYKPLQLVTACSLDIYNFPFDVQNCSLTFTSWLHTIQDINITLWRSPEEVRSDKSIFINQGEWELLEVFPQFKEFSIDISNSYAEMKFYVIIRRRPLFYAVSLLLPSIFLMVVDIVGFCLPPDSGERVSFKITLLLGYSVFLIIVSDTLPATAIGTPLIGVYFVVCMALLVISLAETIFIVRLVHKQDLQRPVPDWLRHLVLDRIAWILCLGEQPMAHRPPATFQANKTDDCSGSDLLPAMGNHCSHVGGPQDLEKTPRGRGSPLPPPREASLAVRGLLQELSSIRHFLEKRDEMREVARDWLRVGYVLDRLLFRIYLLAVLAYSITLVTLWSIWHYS

SMILES	IC50 (5-HT3 receptor [1])	IC50 (5-HT3 receptor [2])
C[C@]12CC[C@@H]3c4ccc(O)cc4CC[C@H]3[C@@H]1C[C@@H](O)[C@@H]2O [estriol]	22 ± 8 µM	–
C[C@]12CC[C@@H]3c4ccc(O)cc4CC[C@H]3[C@@H]1CCC2=O [estrone, 3-hydroxyestra-1,3,5(10)-trien-17-one]	0.0015 µM	0.3 ± 0.02 µM
